Experimental data from article PMC9909315, “SY-707, an ALK/FAK/IGF1R inhibitor, suppresses growth and metastasis of breast cancer cells” (Acta Biochimica et Biophysica Sinica, 2022).

Experiments:
[1] = system: MCF-7 cells; assay: Would healing (migration) assay; type: cell-based; conditions: MCF-7, 24 h, vs control
Method: (§1) Totally, 5×10 ^5 cells were plated into each well of 6-well plates, and cultured to 70%–80% confluence, then the cell monolayer was gently and slowly scratched with a new 1-mL pipette tip across the center of the well. After scratching, the wells were gently washed with PBS twice to remove the detached cells, and replenished with fresh medium containing indicated concentration of compounds. The treated cells were allowed to grow for additional 24 h, and images were capturedunder a microscope. The migration distance were calculated and analyzed to evaluate the effects of compounds.

[2] = system: T47D cells; assay: Would healing (migration) assay; type: cell-based; conditions: 24 h, vs control
Method: as §1

[3] = system: T47D xenograft; assay: T47D tumor xenograft study; type: in vivo, nude mice
Method: Due to the strong cell growth inhibition potency of SY-707, we firstly evaluate its in vivo anti-cancer activity in T47D xenograft model mice. In this model, mice were orally administered twice a day with vehicle or SY-707 at dose of 100, 50 or 25 mg/kg after tumor size reached 150–300 mm ^3.
Next, we evaluated the combination effects of SY-707 and paclitaxel (an approved drug for breast cancer therapy) in T47D xenograft model. Mice bearing T47D breast cancer were divided randomly into 4 groups: vehicle, SY-707 (100 mg/kg/day), paclitaxel (10 mg/kg/week), and SY-707 plus paclitaxel groups.

[4] = system: 4T1 breast cancer metastasis to the lung; assay: Metastasis analysis in vivo (lung nodules, 4T1 model); design: species or system nude mice; conditions: 4T1, treatment alone: SY-707 100 mg/kg/day PO; paclitaxel 10 or 20 mg/kg/week IV; 20 days; not statistically different
Method: Metastasis was detected in mouse lungs after the mice were sacrificed at the last dosing day. The lungs of each mouse were excised immediately and fixed with 4% paraformaldehyde for 24 h, then the lungs were photographed (three photographs per section per mouse) and the metastatic nodules in the lungs were manually counted and the data was analyzed for compound evaluation.
Mice were inoculated with 4T1 cells in PBS at right and left flanks expect the normal control group ( Figure 6A), SY-707 with or without paclitaxel was administered for 20 days when tumor volumes reached 150–300 mm ^3. The mice were sacrificed on the last day of drug administration, then the lungs were collected and metastatic nodules were counted manually for the evaluation of metastasis of 4T1 breast cancer.
The normal group (A) and the vehicle group which treatment with 20% SBE (B) were control. Mouse lungs were taken at the last day of treatment and fixed with 4% paraformaldehyde for 24 h, then the lungs were photographed and the metastatic nodules were counted manually for further analysis. *P<0.05, **P<0.01.

Structure (SMILES) | migration distance [1] | migration distance [2] | tumor growth inhibition rate ([3]; reference compound group, 21 days, dose not given) [%] | number of metastatic nodules in the lungs vs vehicle group [4] | tumor growth inhibition rate ([3]; combination study, paclitaxel 10 mg/kg/week alone, 24 days, P<0.05) [%]
CN(c1ncccc1CNc1nc(Nc2ccc3c(c2)CC(=O)N3)ncc1C(F)(F)F)S(C)(=O)=O [PF-562271, reference compound] | significant reduction of migration | significant reduction of migration | 20 |  | 
CC(=O)O[C@H]1C(=O)[C@@]2(C)[C@H]([C@H](OC(=O)c3ccccc3)[C@]3(O)C[C@H](OC(=O)[C@H](O)[C@@H](NC(=O)c4ccccc4)c4ccccc4)C(C)=C1C3(C)C)[C@]1(OC(C)=O)CO[C@@H]1C[C@@H]2O [paclitaxel, reference compound] |  |  |  | reduced the number of metastatic nodules | 24
